ChEMBL document CHEMBL1201862, “PubChem BioAssay data set” (2004)
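Growth conditions: 96-well plates. Treatment: test compound, 48 hours, 5 concentrations. Analysis: linear interpolation between bracketing concentrations; unreached endpoints set to highest concentration. GI50: concentration for 50% inhibition of growth.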 Calls of active or inactive are those of the source. Rule as the data show it: active = GI50 up to about 1.1 µM and inactive = higher.

Experiments:
Test in all cases: DTP human tumour cell line panel, 48 h
[1] = tested on: SF-268
[2] = tested on: OVCAR-4
[3] = tested on: K562
[4] = tested on: SW-620
[5] = tested on: HL-60
[6] = tested on: CCRF-CEM
[7] = tested on: SK-MEL-2
[8] = tested on: RPMI-8226
[9] = tested on: RXF 393
[10] = tested on: HOP-62
[11] = tested on: PC-3
[12] = tested on: HOP-92
[13] = tested on: SF-539
[14] = tested on: UO-31
[15] = tested on: NCI-H23
[16] = tested on: A549
[17] = tested on: SK-MEL-28
[18] = tested on: SNB-75
[19] = tested on: Malme-3M
[20] = tested on: TK-10

Row | SMILES | GI50 [1] | GI50 [2] | GI50 [3] | GI50 [4] | GI50 [5] | GI50 [6] | GI50 [7] | GI50 [8] | GI50 [9] | GI50 [10] | GI50 [11] | GI50 [12] | GI50 [13] | GI50 [14] | GI50 [15] | GI50 [16] | GI50 [17] | GI50 [18] | GI50 [19] | GI50 [20]
1 | N#CC(c1ccccc1)N(CCc1ccccc1)C(=O)c1ccccc1 (stereo not given) | 30.2 µM (inactive) | 51.2 µM (inactive) | > 100 µM (inactive) | > 100 µM (inactive) | > 100 µM (inactive) | > 100 µM (inactive) | > 64.7 µM (inactive) | > 100 µM (inactive) | > 52.1 µM (inactive) | 34 µM (inactive) | > 93.8 µM (inactive) | 20 µM (inactive) | 31.3 µM (inactive) | > 74.6 µM (inactive) | 71.9 µM (inactive) | > 100 µM (inactive) | > 100 µM (inactive) | 12.7 µM (inactive) | > 72.1 µM (inactive) | > 75.2 µM (inactive)
2 | C/C(=N/c1[nH]c(=O)cc2c1C(=O)CC2)N(C)C | > 200 µM (inactive) | > 200 µM (inactive) | > 200 µM (inactive) | > 200 µM (inactive) | > 200 µM (inactive) | > 200 µM (inactive) | > 200 µM (inactive) | > 200 µM (inactive) | > 200 µM (inactive) | > 200 µM (inactive) | > 200 µM (inactive) | > 200 µM (inactive) | > 200 µM (inactive) | > 200 µM (inactive) | > 200 µM (inactive) | > 200 µM (inactive) | > 200 µM (inactive) | > 200 µM (inactive) | > 200 µM (inactive) | > 200 µM (inactive)
3 | COc1ccc(CCNC2=CC(=O)c3ncccc3C2=O)cc1OC | 5.18 µM (inactive) | 2.47 µM (inactive) | 2.24 µM (inactive) | 1.68 µM (inactive) | 2.82 µM (inactive) | 5.9 µM (inactive) | 1.48 µM (inactive) | 5.57 µM (inactive) | 3.9 µM (inactive) | 1.89 µM (inactive) | 2.54 µM (inactive) | 8.95 µM (inactive) | 2.07 µM (inactive) | 0.931 µM (active) | 0.346 µM (active) | 0.918 µM (active) | 1.47 µM (inactive) | 0.748 µM (active) | 0.682 µM (active) | 24.3 µM (inactive)
4 | COc1ccc([C@H]2CC(=O)C[C@H](c3ccc(OC)cc3)C23C(=O)c2ccccc2C3=O)cc1 | 6.76 µM (inactive) | 9.57 µM (inactive) | 3.52 µM (inactive) | 3.53 µM (inactive) | 2.33 µM (inactive) | 3.68 µM (inactive) | 3.3 µM (inactive) | 4.54 µM (inactive) | 2.92 µM (inactive) | 6.25 µM (inactive) | 4.21 µM (inactive) | 5.74 µM (inactive) | 5.04 µM (inactive) | 17.3 µM (inactive) | 26.1 µM (inactive) | 5.97 µM (inactive) | 9.64 µM (inactive) | 2.9 µM (inactive) | 5 µM (inactive) | 7.82 µM (inactive)
5 | CCOC(=O)c1cccc(/N=N/c2ncc(/C=C/C(=O)OC)[nH]2)c1 | 26.8 µM (inactive) | 17.9 µM (inactive) | 20.9 µM (inactive) | 26.5 µM (inactive) | 5.97 µM (inactive) | 6 µM (inactive) | 27.4 µM (inactive) | 16.3 µM (inactive) | 29.9 µM (inactive) | 16.3 µM (inactive) | 24.3 µM (inactive) | 32.1 µM (inactive) | 21.5 µM (inactive) | 18 µM (inactive) | 28.2 µM (inactive) | 24.5 µM (inactive) | 27 µM (inactive) | 26.4 µM (inactive) | 22.6 µM (inactive) | 26.5 µM (inactive)
6 | CC(C)[C@@H]1NC(=O)[C@@H]2N=C(O[C@H]2C)[C@H](C(C)C)NC(=O)C2N=C1O[C@H]2C | > 100 µM (inactive) | > 100 µM (inactive) | > 100 µM (inactive) | > 100 µM (inactive) | > 100 µM (inactive) | > 100 µM (inactive) | > 100 µM (inactive) | > 100 µM (inactive) | > 100 µM (inactive) | > 100 µM (inactive) | > 100 µM (inactive) | 94.4 µM (inactive) | > 100 µM (inactive) | > 100 µM (inactive) | > 100 µM (inactive) | > 100 µM (inactive) | > 100 µM (inactive) | > 100 µM (inactive) | > 100 µM (inactive) | > 100 µM (inactive)
7 | O=C1/C(=C/c2ccc([N+](=O)[O-])cc2)CNC/C1=C\c1ccc([N+](=O)[O-])cc1 | 1.65 µM (inactive) | 3.63 µM (inactive) | 0.188 µM (active) | 0.638 µM (active) | 0.0944 µM (active) | 0.229 µM (active) | 31.8 µM (inactive) | 0.382 µM (active) | 12.2 µM (inactive) | 4.55 µM (inactive) | 6.7 µM (inactive) | 22.1 µM (inactive) | 2.09 µM (inactive) | 6.17 µM (inactive) | 4.62 µM (inactive) | 17.5 µM (inactive) | 1.82 µM (inactive) | 2.6 µM (inactive) | 46.5 µM (inactive) | 33.1 µM (inactive)
